{"source": "patent US20050244891A1", "about": "“Ligand-containing micelles and uses thereof” (Applera Corporation, priority 2003, published 2005)", "key": {"[1]": {"details": "normalized: phenylalanine 100, glycine 0; cited from earlier work"}, "PKC": {"system": "PKC", "assay": "Fluorescence of micelle with signal molecule upon treatment with protein kinase (Table 19)", "format": "biochemical", "details": "for RFUs at 10 uL (final): after kinase; for RFUs at 10 uL (initial): before kinase", "description": "(§1) Table 19 also provides the specific protein kinase that can be used to modify each of these signal molecules, as well as the fluorescence observed with a micelle comprising the signal molecules upon treatment with the specified protein kinase."}, "Akt": {"system": "Akt", "assay": "Fluorescence of micelle with signal molecule upon treatment with protein kinase (Table 19)", "format": "biochemical", "details": "Conc 8 uM", "description": "as §1"}, "MAPKAP2": {"biological_target": "MAPKAP2 (Homo sapiens, UniProt P49137)", "sequence (P49137 whole entry)": "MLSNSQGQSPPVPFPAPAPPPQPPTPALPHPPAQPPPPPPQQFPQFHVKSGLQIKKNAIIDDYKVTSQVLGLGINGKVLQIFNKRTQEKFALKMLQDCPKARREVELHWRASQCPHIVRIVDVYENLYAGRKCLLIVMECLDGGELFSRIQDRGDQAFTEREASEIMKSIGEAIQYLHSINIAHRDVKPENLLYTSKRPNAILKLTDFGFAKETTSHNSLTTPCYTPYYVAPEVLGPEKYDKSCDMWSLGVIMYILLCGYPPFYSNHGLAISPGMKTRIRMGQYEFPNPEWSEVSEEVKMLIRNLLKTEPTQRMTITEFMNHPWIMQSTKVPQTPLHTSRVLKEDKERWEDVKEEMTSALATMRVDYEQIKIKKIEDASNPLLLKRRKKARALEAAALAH", "assay": "Fluorescence of micelle with signal molecule upon treatment with protein kinase (Table 19)", "format": "biochemical", "details": "Conc 8 uM", "description": "as §1"}, "[2]": {"details": "cited from earlier work"}, "PKA": {"system": "PKA", "assay": "Fluorescence of micelle with signal molecule upon treatment with protein kinase (Table 19)", "format": "biochemical", "details": "Conc 8 uM; for RFUs at 10 uL (final): after kinase; for RFUs at 10 uL (initial): before kinase", "description": "as §1"}, "MAPK": {"system": "MAPK", "assay": "Fluorescence of micelle with signal molecule upon treatment with protein kinase (Table 19)", "format": "biochemical", "details": "Conc 16 uM", "description": "as §1"}, "Src, lyn, fyn": {"system": "Src, lyn, fyn", "assay": "Fluorescence of micelle with signal molecule upon treatment with protein kinase (Table 19)", "format": "biochemical", "details": "Conc 8 uM", "description": "as §1"}}, "note": "The star is where a group is joined. K(dye2) = lysine labeled with dye2 = 5-carboxy-2′,7′-dipyridyl-sulfonefluorescein; K(tet) = lysine labeled with tet = 2′,7′,4,7-tetrachloro-5-carboxy fluorescein; Heptadecanoyl = CCCCCCCCCCCCCCCCC(=O)*; Pentadecanoyl = CCCCCCCCCCCCCCC(=O)*; Palmitoyl = CCCCCCCCCCCCCCCC(=O)*; Tridecanoyl = CCCCCCCCCCCCC(=O)*; AEEA = NCCOCCOCC(=O)O", "data": [{"molecule": "O=C(O)[C@@H]1CCCN1", "note": "[Proline (P), Proline]", "values": [{"measurement": "Monera et al. Hydrophobicity (pH 2)", "setting": "[1]", "value": "−46"}]}, {"molecule": "C17-OOOK(tet)-RQGSFRA-NH2: peptide-dye signal molecule for PKC; tet = 2′,7′,4,7-tetachloro-5-carboxy fluorescein ({Heptadecanoyl-AEEA-AEEA-AEEA-K(tet)}-RQGSFRA-NH2)", "values": [{"measurement": "Fold increase", "setting": "PKC; Conc 6 uM", "value": 7, "unit": "x"}, {"measurement": "RFUs at 10 uL (final)", "setting": "PKC; Conc 6 uM", "value": 4900, "unit": "RFU"}, {"measurement": "RFUs at 10 uL (initial)", "setting": "PKC; Conc 6 uM", "value": 700, "unit": "RFU"}]}, {"molecule": "C15-OOOK(dye2)RPRTSSF-NH2: peptide-dye signal molecule for Akt; dye2 = 5-carboxy-2′,7′-dipyridyl-sulfonefluorescein ({Pentadecanoyl-AEEA-AEEA-AEEA-K(dye2)}-RPRTSSF-NH2)", "values": [{"measurement": "Fold increase", "setting": "Akt", "value": 4, "unit": "x"}, {"measurement": "RFUs at 10 uL (final)", "setting": "Akt; after kinase", "value": 7500, "unit": "RFU"}, {"measurement": "RFUs at 10 uL (initial)", "setting": "Akt; before kinase", "value": 1500, "unit": "RFU"}]}, {"molecule": "C16-OOOK(dye2)RLNRTLSV-NH2: peptide-dye signal molecule for MAPKAP2; dye2 = 5-carboxy-2′,7′-dipyridyl-sulfonefluorescein ({Palmitoyl-AEEA-AEEA-AEEA-K(dye2)}-RLNRTLSV-NH2)", "values": [{"measurement": "Fold increase", "setting": "MAPKAP2", "value": 4, "unit": "x"}, {"measurement": "RFUs at 10 uL (final)", "setting": "MAPKAP2; after kinase", "value": 3200, "unit": "RFU"}, {"measurement": "RFUs at 10 uL (initial)", "setting": "MAPKAP2; before kinase", "value": 800, "unit": "RFU"}]}, {"molecule": "N[C@@H](CO)C(=O)O", "note": "[Serine (S), Serine]", "values": [{"measurement": "Side chain pKa", "setting": "[2]", "value": "˜13"}]}, {"molecule": "C16-OOOK(dye2)-RREGSFR-NH2: peptide-dye signal molecule for PKC; O = 2-aminoethoxy-2-ethoxyacetyl linker, dye2 = 5-carboxy-2′,7′-dipyridyl-sulfonefluorescein ({Palmitoyl-AEEA-AEEA-AEEA-K(dye2)}-RREGSFR-NH2)", "values": [{"measurement": "Fold increase", "setting": "PKC; Conc 4 uM", "value": 4.5, "unit": "x"}, {"measurement": "RFUs at 10 uL (final)", "setting": "PKC; Conc 4 uM", "value": 3000, "unit": "RFU"}, {"measurement": "RFUs at 10 uL (initial)", "setting": "PKC; Conc 4 uM", "value": 650, "unit": "RFU"}]}, {"molecule": "C13-OOOK(dye2)-LRRASLG-NH2: peptide-dye signal molecule for PKA; O = 2-aminoethoxy-2-ethoxyacetyl linker, dye2 = 5-carboxy-2′,7′-dipyridyl-sulfonefluorescein ({Tridecanoyl-AEEA-AEEA-AEEA-K(dye2)}-LRRASLG-NH2)", "values": [{"measurement": "Fold increase", "setting": "PKA", "value": 5, "unit": "x"}, {"measurement": "RFUs at 10 uL (final)", "setting": "PKA", "value": 5000, "unit": "RFU"}, {"measurement": "RFUs at 10 uL (initial)", "setting": "PKA", "value": 1000, "unit": "RFU"}]}, {"molecule": "C17-OOOK(dye2)PRTPGGR-NH2: peptide-dye signal molecule for MAPK; dye2 = 5-carboxy-2′,7′-dipyridyl-sulfonefluorescein ({Heptadecanoyl-AEEA-AEEA-AEEA-K(dye2)}-PRTPGGR-NH2)", "values": [{"measurement": "Fold increase", "setting": "MAPK", "value": 5, "unit": "x"}, {"measurement": "RFUs at 10 uL (final)", "setting": "MAPK; after kinase", "value": 5700, "unit": "RFU"}, {"measurement": "RFUs at 10 uL (initial)", "setting": "MAPK; before kinase", "value": 1100, "unit": "RFU"}]}, {"molecule": "C16-OOOK(dye2)RIGEGTYGVVRR-NH2: peptide-dye signal molecule for Src, lyn, fyn; dye2 = 5-carboxy-2′,7′-dipyridyl-sulfonefluorescein ({Palmitoyl-AEEA-AEEA-AEEA-K(dye2)}-RIGEGTYGVVRR-NH2)", "values": [{"measurement": "Fold increase", "setting": "Src, lyn, fyn", "value": 6.5, "unit": "x"}, {"measurement": "RFUs at 10 uL (final)", "setting": "Src, lyn, fyn; after kinase", "value": 6500, "unit": "RFU"}, {"measurement": "RFUs at 10 uL (initial)", "setting": "Src, lyn, fyn; before kinase", "value": 1000, "unit": "RFU"}]}, {"molecule": "C13-K(dye2)-LRRASLG-NH2: peptide-dye signal molecule for PKA; dye2 = 5-carboxy-2′,7′-dipyridyl-sulfonefluorescein, C-terminus amidated ({Tridecanoyl-K(dye2)}-LRRASLG-NH2)", "values": [{"measurement": "Fold increase", "setting": "PKA", "value": 5, "unit": "x"}, {"measurement": "RFUs at 10 uL (final)", "setting": "PKA", "value": 5000, "unit": "RFU"}, {"measurement": "RFUs at 10 uL (initial)", "setting": "PKA", "value": 1000, "unit": "RFU"}]}, {"molecule": "C[C@@H](O)[C@H](N)C(=O)O", "note": "[Threonine (T), Threonine]", "values": [{"measurement": "Side chain pKa", "setting": "[2]", "value": "˜13"}]}]}
